From publication PMC3952036 (Cellular and molecular life sciences : CMLS, 2014)

Molecular target: Flag-DOR (murine DOR tagged with Flag at the N-terminus) (Mus musculus, UniProt P32300)
Sequence (P32300 whole entry): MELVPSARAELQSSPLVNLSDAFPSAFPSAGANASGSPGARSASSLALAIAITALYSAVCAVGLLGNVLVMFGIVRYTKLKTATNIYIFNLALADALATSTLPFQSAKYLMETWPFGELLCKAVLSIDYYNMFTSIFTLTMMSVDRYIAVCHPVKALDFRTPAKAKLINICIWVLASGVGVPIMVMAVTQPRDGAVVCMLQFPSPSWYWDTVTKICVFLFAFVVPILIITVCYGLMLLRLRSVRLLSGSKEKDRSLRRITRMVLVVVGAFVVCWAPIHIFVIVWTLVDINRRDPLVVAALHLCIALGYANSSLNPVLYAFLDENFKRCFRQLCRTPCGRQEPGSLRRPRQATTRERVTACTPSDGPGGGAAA

## C=CCN1C[C@H](C)N([C@H](c2ccc(C(=O)N(CC)CC)cc2)c2cccc(OC)c2)C[C@H]1C [SNC-80, (1)-4-[(αR)-α-((2S,5R)-4-allyl-2,5-dimethyl-1-piperazinyl)-3-methoxybenzyl]-N,N-diethylbenzamide]
  log KA ± SEM (M): −6.58 ± 0.43 log M
